Among the test systems are M14 melanoma; OVCAR-3 ovarian; PC-3 prostate; RPMI-8226 leukemia; SF-268 CNS; SK-MEL-2 melanoma; SK-MEL-5 melanoma; U251 CNS; DU-145 prostate; HS 578T breast.
Test in all cases: NCI tumour cell line growth inhibition, 48 h

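How tested: cells in 96-well plates exposed to compound for 48 hours at five concentrations. At the GI50, growth is halved. TGI is the concentration that stops growth completely.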

Consider `COc1cc2c(cc1C)NC(=O)/C2=C/c1ccccn1`, for which the GI50 with M14 melanoma is 3.8 µM; in the assay on OVCAR-3 ovarian, 2.61 µM; with PC-3 prostate, 8.73 µM; with RPMI-8226 leukemia, 3.93 µM; in the assay with SF-268 CNS, 3.28 µM; with SK-MEL-2 melanoma it was more than 100 µM. The GI50 is 4.49 µM in the assay on SK-MEL-5 melanoma and 2.92 µM in the assay with U251 CNS. Moreover, the TGI with M14 melanoma was more than 100 µM; in the assay with OVCAR-3 ovarian, 6.81 µM; in the assay with PC-3 prostate, more than 100 µM; in the assay with RPMI-8226 leukemia it was more than 100 µM; with SF-268 CNS it was 24.6 µM; with SK-MEL-2 melanoma, more than 100 µM. The TGI in the assay on SK-MEL-5 melanoma was 27.3 µM; in the assay with U251 CNS, more than 100 µM.

Take `COc1cc(NC(C)CCCNC2CN3CCC2CC3)c2ncccc2c1` (stereo unspecified): the GI50 is 16.4 µM in the assay on DU-145 prostate; 14.8 µM in the assay on HS 578T breast; 3.92 µM with M14 melanoma; 3.22 µM in the assay on OVCAR-3 ovarian; 12.5 µM in the assay on PC-3 prostate; 12.2 µM with SF-268 CNS. Besides, the GI50 is 23.3 µM in the assay on SK-MEL-2 melanoma, 2.23 µM in the assay with SK-MEL-5 melanoma and 10.6 µM with U251 CNS. For the same compound, the TGI in the assay with DU-145 prostate was 30.2 µM; in the assay on HS 578T breast, 39.6 µM; in the assay with M14 melanoma, 13.5 µM; with OVCAR-3 ovarian it was 11.4 µM; with PC-3 prostate it was 35.1 µM; with SF-268 CNS it was 25.8 µM. Also, the results for the TGI in the assay with SK-MEL-2 melanoma, in the assay on SK-MEL-5 melanoma and in the assay with U251 CNS were 52.4 µM, 5.6 µM and 24 µM, respectively.

For the compound `CN(CCCn1c2c(c3ccccc3c1=O)C(=O)c1ccccc1-2)CCCn1c2c(c3ccccc3c1=O)C(=O)c1ccccc1-2`, the GI50 in the assay on HS 578T breast was 2.67 µM; in the assay on M14 melanoma it was 2.31 µM; with PC-3 prostate, 0.29 µM; with SF-268 CNS it was 1.64 µM; in the assay on SK-MEL-2 melanoma it was 27.6 µM; in the assay on SK-MEL-5 melanoma, 6.57 µM. The TGI with HS 578T breast is more than 100 µM; in the assay with M14 melanoma it was more than 22.6 µM; in the assay with SF-268 CNS, more than 100 µM; in the assay on SK-MEL-2 melanoma, more than 51.8 µM; with SK-MEL-5 melanoma, more than 100 µM.

As to `COc1ccc(C2=CC(c3ccc4c(c3)OCO4)c3c(c4ccccc4oc3=O)O2)cc1OC` (stereo unspecified), the TGI with DU-145 prostate was more than 100 µM; in the assay with HS 578T breast, more than 25.6 µM; with M14 melanoma, more than 100 µM; with PC-3 prostate, more than 100 µM; in the assay with RPMI-8226 leukemia it was more than 65.3 µM; in the assay on SF-268 CNS, more than 100 µM. In addition, the TGI with SK-MEL-2 melanoma, in the assay on SK-MEL-5 melanoma and in the assay with U251 CNS was more than 100 µM throughout.

On to `COc1cc([N+](=O)[O-])c(OC)cc1-c1nc2sc(Cl)cn2c1/C(N)=N/C(=N)N`, for which the GI50 was 7.2 µM in the assay with DU-145 prostate; 2.72 µM with HS 578T breast; 3.51 µM in the assay on M14 melanoma; 1.72 µM in the assay on OVCAR-3 ovarian; 3.22 µM with PC-3 prostate; 5.73 µM in the assay with RPMI-8226 leukemia. Moreover, the GI50 in the assay on SF-268 CNS is 4.17 µM; in the assay with SK-MEL-5 melanoma, 4.52 µM; in the assay on U251 CNS, 3.41 µM. Also, the TGI in the assay with DU-145 prostate is 27.9 µM; in the assay with HS 578T breast, 6.8 µM; in the assay with M14 melanoma, 13 µM; in the assay with OVCAR-3 ovarian it was 3.45 µM; with PC-3 prostate it was 13 µM; with RPMI-8226 leukemia it was 20.5 µM. Moreover, the TGI is 11.8 µM with SF-268 CNS, 29.5 µM in the assay on SK-MEL-5 melanoma and more than 100 µM in the assay on U251 CNS.

Turning to `CC(C)(C)n1cc(-c2ccnc(NCCCNS(=O)(=O)c3ccc(C(F)(F)F)cc3)c2)c(-c2cccc(O)c2)n1`, the GI50 was 1.94 µM with DU-145 prostate; 1.98 µM with HS 578T breast; 2 µM in the assay with M14 melanoma; 1.96 µM in the assay on OVCAR-3 ovarian; 1.64 µM with PC-3 prostate; 2.1 µM with SK-MEL-2 melanoma. Further, the GI50 in the assay with SK-MEL-5 melanoma was 1.6 µM; in the assay with U251 CNS it was 1.71 µM. Moreover, the TGI with DU-145 prostate was found to be 3.58 µM; with HS 578T breast, 4.84 µM; in the assay on M14 melanoma, 3.93 µM; with OVCAR-3 ovarian it was 3.84 µM; in the assay on PC-3 prostate, 3.72 µM; in the assay with SK-MEL-2 melanoma, 3.95 µM. The TGI in the assay on SK-MEL-5 melanoma is 2.97 µM; in the assay on U251 CNS, 3.53 µM.

As for `COc1cnc2c(c1)C(=O)c1c-2n(CCCn2ccnc2)c(=O)c2cc(F)ccc12`, the GI50 in the assay on DU-145 prostate is less than 0.01 µM; in the assay with HS 578T breast, 0.504 µM; in the assay on M14 melanoma it was less than 0.01 µM; with OVCAR-3 ovarian, 0.0437 µM; with PC-3 prostate, 0.0576 µM; with RPMI-8226 leukemia it was less than 0.01 µM. For the same compound, the GI50 was 0.232 µM in the assay with SK-MEL-2 melanoma, 0.0169 µM with SK-MEL-5 melanoma and less than 0.01 µM in the assay on U251 CNS. Further, the TGI with DU-145 prostate is 1.17 µM; in the assay with HS 578T breast it was more than 100 µM; in the assay on M14 melanoma it was 0.635 µM; with OVCAR-3 ovarian, 0.382 µM; in the assay with PC-3 prostate it was more than 100 µM; in the assay with RPMI-8226 leukemia, 0.248 µM. For the same compound, the TGI in the assay with SK-MEL-2 melanoma is 0.449 µM; in the assay with SK-MEL-5 melanoma it was 0.0717 µM; in the assay on U251 CNS, 0.179 µM.

Consider `COc1ccc(/C(COc2ccc3c(=O)cc(-c4ccccc4)oc3c2)=N\O)cc1`, for which the GI50 in the assay with DU-145 prostate is 11.5 µM; in the assay with M14 melanoma, 29.1 µM; with OVCAR-3 ovarian, 10.3 µM; in the assay on PC-3 prostate it was 12.7 µM; in the assay on RPMI-8226 leukemia it was 22.3 µM; with SF-268 CNS, 11.3 µM. Also, the figures for the GI50 with SK-MEL-2 melanoma, with SK-MEL-5 melanoma and in the assay on U251 CNS were 13.3 µM, 9.61 µM and 14.8 µM, respectively. Besides, the TGI was more than 47.4 µM in the assay with DU-145 prostate; more than 50 µM in the assay with M14 melanoma; 38.7 µM with OVCAR-3 ovarian; more than 36.1 µM in the assay on PC-3 prostate; more than 50 µM in the assay on RPMI-8226 leukemia; more than 36.8 µM with SF-268 CNS. The TGI in the assay with SK-MEL-2 melanoma is more than 39.1 µM; in the assay with SK-MEL-5 melanoma, more than 29.4 µM; in the assay with U251 CNS, more than 50 µM.

Turning to `Cc1ccc2nc(NC(=O)C(=O)C(C#N)c3nc4ccccc4s3)sc2c1` (stereo unspecified), the TGI was more than 100 µM in the assay with M14 melanoma; 56.3 µM in the assay with OVCAR-3 ovarian; 64.8 µM with RPMI-8226 leukemia; more than 100 µM with SF-268 CNS; more than 100 µM with SK-MEL-2 melanoma; 45.7 µM in the assay on SK-MEL-5 melanoma. The same compound displayed a TGI with U251 CNS of more than 100 µM.
